Source: PubChem BioAssay (NCI)
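Briefly, cells in 96-well plates were exposed to five compound concentrations for 48 h, and endpoints were estimated by linear interpolation. Definition used: TGI = concentration required for complete inhibition of growth.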

Tests used:
Experiment in all cases: growth of human tumour cells (NCI), 48 h
CCRF-CEM leukemia = system: CCRF-CEM leukemia
RPMI-8226 leukemia = system: RPMI-8226 leukemia
KM12 colon = system: KM12 colon
DU-145 prostate = system: DU-145 prostate
SK-MEL-28 melanoma = system: SK-MEL-28 melanoma
EKVX NSCLC = system: EKVX NSCLC
ACHN renal = system: ACHN renal
K-562 leukemia = system: K-562 leukemia
U251 CNS = system: U251 CNS
TK-10 renal = system: TK-10 renal
HOP-62 NSCLC = system: HOP-62 NSCLC
NCI-H23 lung = system: NCI-H23 lung
NCI-H522 lung = system: NCI-H522 lung
OVCAR-3 ovarian = system: OVCAR-3 ovarian
SK-MEL-5 melanoma = system: SK-MEL-5 melanoma
SR leukemia = system: SR leukemia
A549 NSCLC = system: A549 NSCLC
SNB-75 CNS = system: SNB-75 CNS
786-0 renal = system: 786-0 renal
MALME-3M melanoma = system: MALME-3M melanoma
SK-MEL-2 melanoma = system: SK-MEL-2 melanoma
IGROV1 ovarian = system: IGROV1 ovarian
HS 578T breast = system: HS 578T breast
UACC-257 melanoma = system: UACC-257 melanoma
SF-268 CNS = system: SF-268 CNS
HT29 colon = system: HT29 colon
SK-OV-3 ovarian = system: SK-OV-3 ovarian
UO-31 renal = system: UO-31 renal
M14 melanoma = system: M14 melanoma
MDA-N = system: MDA-N
SN12C renal = system: SN12C renal
PC-3 prostate = system: PC-3 prostate
SF-295 CNS = system: SF-295 CNS
BT-549 breast = system: BT-549 breast
OVCAR-5 ovarian = system: OVCAR-5 ovarian
T-47D breast = system: T-47D breast
HCT-15 colon = system: HCT-15 colon
HCT-116 colon = system: HCT-116 colon
RXF 393 renal = system: RXF 393 renal
MCF7 breast = system: MCF7 breast
OVCAR-4 ovarian = system: OVCAR-4 ovarian
HL-60(TB) leukemia = system: HL-60(TB) leukemia
SW-620 colon = system: SW-620 colon
OVCAR-8 ovarian = system: OVCAR-8 ovarian
NCI/ADR-RES ovarian = system: NCI/ADR-RES ovarian
LOX IMVI melanoma = system: LOX IMVI melanoma
MOLT-4 leukemia = system: MOLT-4 leukemia
CAKI-1 renal = system: CAKI-1 renal
COLO 205 colon = system: COLO 205 colon
A498 renal = system: A498 renal
HOP-92 NSCLC = system: HOP-92 NSCLC
SNB-19 CNS = system: SNB-19 CNS
MDA-MB-231 breast = system: MDA-MB-231 breast
NCI-H226 lung = system: NCI-H226 lung
MDA-MB-435 = system: MDA-MB-435
UACC-62 melanoma = system: UACC-62 melanoma
NCI-H460 lung = system: NCI-H460 lung
SF-539 CNS = system: SF-539 CNS

## COC(=O)c1cc(C)n2c1CS[C@@H]2c1ccccc1
CCRF-CEM leukemia
  TGI: > 100 µM
RPMI-8226 leukemia
  TGI: 84.5 µM
KM12 colon
  TGI: > 100 µM
DU-145 prostate
  TGI: > 100 µM
SK-MEL-28 melanoma
  TGI: > 100 µM
EKVX NSCLC
  TGI: 93.2 µM
ACHN renal
  TGI: > 100 µM
K-562 leukemia
  TGI: > 100 µM
U251 CNS
  TGI: > 100 µM
TK-10 renal
  TGI: > 100 µM
HOP-62 NSCLC
  TGI: > 100 µM
NCI-H23 lung
  TGI: > 100 µM
NCI-H522 lung
  TGI: 82 µM
OVCAR-3 ovarian
  TGI: > 100 µM
SK-MEL-5 melanoma
  TGI: 44.3 µM
SR leukemia
  TGI: 54.6 µM
A549 NSCLC
  TGI: > 100 µM
SNB-75 CNS
  TGI: 81.3 µM
786-0 renal
  TGI: > 100 µM
MALME-3M melanoma
  TGI: > 100 µM
SK-MEL-2 melanoma
  TGI: 91.8 µM
IGROV1 ovarian
  TGI: > 100 µM
HS 578T breast
  TGI: > 100 µM
UACC-257 melanoma
  TGI: > 100 µM
SF-268 CNS
  TGI: > 100 µM
HT29 colon
  TGI: > 100 µM
SK-OV-3 ovarian
  TGI: > 100 µM
UO-31 renal
  TGI: > 100 µM
M14 melanoma
  TGI: 73.4 µM
MDA-N
  TGI: > 100 µM
SN12C renal
  TGI: > 100 µM
PC-3 prostate
  TGI: > 100 µM
SF-295 CNS
  TGI: > 100 µM
BT-549 breast
  TGI: 82.8 µM
OVCAR-5 ovarian
  TGI: > 100 µM
T-47D breast
  TGI: 93.1 µM
HCT-15 colon
  TGI: > 100 µM
HCT-116 colon
  TGI: > 100 µM
RXF 393 renal
  TGI: 55.5 µM
MCF7 breast
  TGI: > 100 µM
OVCAR-4 ovarian
  TGI: > 100 µM
HL-60(TB) leukemia
  TGI: > 100 µM
SW-620 colon
  TGI: > 100 µM
OVCAR-8 ovarian
  TGI: > 100 µM
NCI/ADR-RES ovarian
  TGI: 87 µM
LOX IMVI melanoma
  TGI: > 100 µM
MOLT-4 leukemia
  TGI: 71.1 µM
CAKI-1 renal
  TGI: > 100 µM
COLO 205 colon
  TGI: 80 µM
A498 renal
  TGI: 88 µM
HOP-92 NSCLC
  TGI: 76.8 µM
SNB-19 CNS
  TGI: > 100 µM
MDA-MB-231 breast
  TGI: > 100 µM
NCI-H226 lung
  TGI: 89.1 µM
MDA-MB-435
  TGI: 79 µM

## O=C(O)CNC(=O)c1ccccc1O
CCRF-CEM leukemia
  TGI: > 100 µM
RPMI-8226 leukemia
  TGI: > 100 µM
KM12 colon
  TGI: > 100 µM
DU-145 prostate
  TGI: > 100 µM
UACC-62 melanoma
  TGI: > 100 µM
SK-MEL-28 melanoma
  TGI: > 100 µM
EKVX NSCLC
  TGI: > 100 µM
ACHN renal
  TGI: > 100 µM
K-562 leukemia
  TGI: > 100 µM
U251 CNS
  TGI: > 100 µM
TK-10 renal
  TGI: > 100 µM
HOP-62 NSCLC
  TGI: > 100 µM
NCI-H23 lung
  TGI: > 100 µM
NCI-H522 lung
  TGI: > 100 µM
OVCAR-3 ovarian
  TGI: > 100 µM
SK-MEL-5 melanoma
  TGI: > 100 µM
SR leukemia
  TGI: > 100 µM
A549 NSCLC
  TGI: > 100 µM
SNB-75 CNS
  TGI: > 100 µM
786-0 renal
  TGI: > 100 µM
NCI-H460 lung
  TGI: > 100 µM
MALME-3M melanoma
  TGI: > 100 µM
SK-MEL-2 melanoma
  TGI: > 100 µM
IGROV1 ovarian
  TGI: > 100 µM
HS 578T breast
  TGI: > 100 µM
UACC-257 melanoma
  TGI: > 100 µM
SF-268 CNS
  TGI: > 100 µM
HT29 colon
  TGI: > 100 µM
SK-OV-3 ovarian
  TGI: > 100 µM
UO-31 renal
  TGI: > 100 µM
M14 melanoma
  TGI: > 100 µM
MDA-N
  TGI: > 100 µM
SN12C renal
  TGI: > 100 µM
PC-3 prostate
  TGI: > 100 µM
SF-295 CNS
  TGI: > 100 µM
BT-549 breast
  TGI: > 100 µM
OVCAR-5 ovarian
  TGI: > 100 µM
T-47D breast
  TGI: > 100 µM
HCT-15 colon
  TGI: > 100 µM
HCT-116 colon
  TGI: > 100 µM
RXF 393 renal
  TGI: > 100 µM
MCF7 breast
  TGI: > 100 µM
OVCAR-4 ovarian
  TGI: > 100 µM
HL-60(TB) leukemia
  TGI: > 100 µM
SW-620 colon
  TGI: > 100 µM
OVCAR-8 ovarian
  TGI: > 100 µM
NCI/ADR-RES ovarian
  TGI: > 100 µM
LOX IMVI melanoma
  TGI: > 100 µM
MOLT-4 leukemia
  TGI: > 100 µM
CAKI-1 renal
  TGI: > 100 µM
COLO 205 colon
  TGI: > 100 µM
A498 renal
  TGI: > 100 µM
SF-539 CNS
  TGI: > 100 µM
HOP-92 NSCLC
  TGI: > 100 µM
SNB-19 CNS
  TGI: > 100 µM
MDA-MB-231 breast
  TGI: > 100 µM
NCI-H226 lung
  TGI: > 100 µM
MDA-MB-435
  TGI: > 100 µM
